Literature values, collected in patent US20080292693A1, “COMPOSITION AND METHOD FOR TREATING DIGESTIVE SYSTEM DISORDERS” (priority 2007, published 2008).

Key:
[1] = tested on: GERD
[2] = tested on: Crohn's disease; details: double-blind clinical study, daily dose of 1,000 mg

Structure (SMILES): C=C(C)[C@H]1CC=C(C)CC1 [d-Limonene]
- symptoms of GERD ([1]; double-blind clinical study, daily dose of 1,000 mg): significantly reduce
- responders free of GERD symptoms ([1]; one GERD study, for up to six months without taking an additional dose): fifty
- symptoms of Crohn's disease [2]: significantly reduce
